Results reported in PMC9025941, “Influence of the Type of Amino Acid on the Permeability and Properties of Ibuprofenates of Isopropyl Amino Acid Esters” (International Journal of Molecular Sciences, 2022).
Values joined by “and” are separate entries in the source; they are usually repeats but may differ in a detail not shown here. Equal entries are not always repeated. Where two headings read alike, the source gives them in different places. Marks after values point to notes of the source that are not given here.

Key:
[1] = Thermal stability (TG/DTG): decomposition onset and maximum mass-loss rate temperature
Method: In Figure 5, the thermal stability of ibuprofen and amino acid isopropyl ester ibuprofenates was determined and compared. All TG, DTG, and c-DTA curves are in the Supplementary Materials (Figures S87–S100). The decomposition onset temperature (Tonset) and the temperature of the maximum rate of mass loss (Tmax) were determined.

[2] = 37 °C, cited from earlier work
[3] = set-up: method as in PMID 35516534; settings: determined log P range; cited from earlier work
[4] = In vitro skin permeation, Franz diffusion cells; settings: for Q%24 h, the percentage of the applied dose permeated after 24 h / Cumulative Permeation Mass / LT, lag time: n = 3; for Q%24 h, the percentage of the applied dose permeated after 24 h / Cumulative Permeation Mass: 24 h; for EF, enhancement factor: relative to IBU; for JSS, steady-state flux: saturated solution in PBS pH 7.4, n = 3
[5] = n-octanol-water partition coefficient, shake flask method; settings: for Log P (n-octanol-water partition coefficient): shake flask, 25 °C
[6] = 24 h penetration, n = 3
[7] = Solubility in organic solvents by modified Vogel's method; settings: 25 °C
[8] = Solubility (saturation concentration) in deionised water and PBS pH 7.4, HPLC; settings: for Solubility in Phosphate Buffer pH = 7.4: PBS pH 7.4, 32 °C; for Solubility in Water: 25 °C
[9] = pH 7.4
[10] = shake flask; cited from earlier work
[11] = 25 °C; cited from earlier work
[12] = cited from earlier work; for Solubility in Phosphate Buffer pH = 7.4: PBS pH 7.4, 32 °C; for Solubility in Water: 25 °C
[13] = saturated solution in PBS pH 7.4, mass of compound
[14] = saturated solution in PBS pH 7.4, mass of ibuprofen

SMILES	Tonset, the onset temperature of the thermal degradation ([1]; TG) [°C]	Q%24 h, the percentage of the applied dose permeated after 24 h [4] [%]	Cumulative Permeation Mass [4, 13]	Cumulative Permeation Mass [4, 14]	LT, lag time [4] [h]	EF, enhancement factor [4]	JSS, steady-state flux [4]	Tonset, the onset temperature of the thermal degradation [1] [°C]	Accumulation in the skin [6] [µg IBU g^−1]	Solubility in DMSO [7]	Solubility in chloroform [7]	Solubility in dichloromethane [7]	Solubility in diethyl ether [7]	Solubility in ethanol [7]	Solubility in ethyl acetate [7]	Solubility in n-hexane [7]	Solubility in toluene [7]	Log P (n-octanol-water partition coefficient) [5]	Solubility in Phosphate Buffer pH = 7.4 ([8]; g of active compound (IBU)) [g IBU∙dm^−3]	Solubility in Phosphate Buffer pH = 7.4 ([8]; g of compound) [g∙dm^−3]	other results
CC(C)Cc1ccc(C(C)C(=O)O)cc1 (racemic) [IBU, (RS)-2-(4-(2-methylpropyl)phenyl)propanoic acid, reference compound]	189.8	7.408 ± 0.648	32.001 ± 3.167 ^a µg·cm^−2	32.001 ± 2.801 ^a µg IBU·cm^−2	1.399 ± 0.145	1.00	3.017 ± 0.209 µg IBU cm^−2 h^−1														solubility ([2]; pH 1): 0.038 mg·cm^−3; solubility ([2]; pH 4.5): 0.084 mg·cm^−3; solubility ([2]; pH 5.5): 0.685 mg·cm^−3; solubility ([2]; pH 6.8): 3.37 mg·cm^−3; log P [3]: 2.41–4.00; Papp ([4]; pig, pH 7.4): 1.94 ×10⁻⁶ cm/s; JSS, steady-state flux ([4]; listed as ibuprofen): 3.017 µg IBU cm^−2 h^−1; logP at 3 h ([5]; n-octanol/water): 3.208 ± 0.002
CC(C)Cc1ccc(C(C)C(=O)O)cc1.CC(C)OC(=O)C[C@H](N)C(=O)OC(C)C [[L-Asp(OiPr)2][IBU], L-aspartic acid isopropyl ester ibuprofenate]		27.307 ± 2.851	812.658 ± 12.545 ^b µg·cm^−2	395.800 ± 41.320 ^b µg IBU·cm^−2	1.010 ± 0.054	3.69	55.063 ± 1.425 µg IBU cm^−2 h^−1	141.7	406.961 ± 17.799	+ (soluble >100 mg cm^−3)	+ (soluble >100 mg cm^−3)	+ (soluble >100 mg cm^−3)	+/− (partially soluble 33–100 mg cm^−3)	+ (soluble >100 mg cm^−3)	+ (soluble >100 mg cm^−3)	− (insoluble <33 mg cm^−3)	+ (soluble >100 mg cm^−3)	1.506 ± 0.001	1.449 ± 0.009	2.976 ± 0.018	Solubility in Water ([8]; g of active compound (IBU)): 1.159 ± 0.001 g IBU∙dm^−3; Solubility in Water ([8]; g of compound): 2.380 ± 0.003 g∙dm^−3
CC(C)Cc1ccc(C(C)C(=O)O)cc1.CC[C@H](C)[C@H](N)C(=O)OC(C)C [[L-IleOiPr][IBU], L-isoleucine isopropyl ester ibuprofenate]		2.318 ± 0.118	173.888 ± 8.815 ^b µg·cm^−2	94.512 ± 4.791 ^b µg IBU·cm^−2	1.617 ± 0.057	0.31	9.545 µg IBU cm^−2 h^−1 and 9.545 ± 0.239 µg IBU cm^−2 h^−1	105.2	646.293 ± 123.070	+ (soluble >100 mg cm^−3)	+ (soluble >100 mg cm^−3)	+ (soluble >100 mg cm^−3)	+/− (partially soluble 33–100 mg cm^−3)	+ (soluble >100 mg cm^−3)	+ (soluble >100 mg cm^−3)	− (insoluble <33 mg cm^−3)	+ (soluble >100 mg cm^−3)	1.652 ± 0.008	2.562 ± 0.010	4.713 ± 0.018	Solubility in Water ([8]; g of active compound (IBU)): 1.483 ± 0.098 g IBU∙dm^−3; Solubility in Water ([8]; g of compound): 2.729 ± 0.180 g∙dm^−3
CC(C)Cc1ccc(C(C)C(=O)O)cc1.CC(C)Cc1ccc(C(C)C(=O)O)cc1.CC(C)OC(=O)[C@@H](N)CCCCN [[L-LysOiPr][IBU]2, L-lysine isopropyl ester bis(ibuprofenate)]	183.7	10.624 ± 0.474	640.825 ± 28.577 ^b µg·cm^−2	220.016 ± 9.811 ^b µg IBU·cm^−2	1.333 ± 0.258	1.43	24.852 ± 2.857 µg IBU cm^−2 h^−1		392.593 ± 111.434	+ (soluble >100 mg cm^−3)	− (insoluble <33 mg cm^−3)	− (insoluble <33 mg cm^−3)	− (insoluble <33 mg cm^−3)	+ (soluble >100 mg cm^−3)	− (insoluble <33 mg cm^−3)	− (insoluble <33 mg cm^−3)	− (insoluble <33 mg cm^−3)		2.071 ± 0.118	6.032 ± 0.342	Solubility in Water ([8]; g of active compound (IBU)): 2.012 ± 0.110 g IBU∙dm^−3; Solubility in Water ([8]; g of compound): 5.861 ± 0.322 g∙dm^−3
CC(C)Cc1ccc(C(C)C(=O)O)cc1.CSCC[C@H](N)C(=O)OC(C)C [[L-MetOiPr][IBU], L-methionine isopropyl ester ibuprofenate]								146.2													JSS, steady-state flux [9]: 25.312 ± 0.661 µg IBU cm^−2 h^−1
CC(C)Cc1ccc(C(C)C(=O)O)cc1.CC(C)OC(=O)[C@@H](N)CO [[L-SerOiPr][IBU], L-serine isopropyl ester ibuprofenate]	139.2	11.035 ± 0.500			1.160 ± 0.081	1.49	66.106 µg IBU cm^−2 h^−1 and 66.106 ± 2.925 µg IBU cm^−2 h^−1		407.652 ± 74.170						+/− (partially soluble 33–100 mg cm^−3)		− (insoluble <33 mg cm^−3)	0.775 ± 0.008			
CC(C)Cc1ccc(C(C)C(=O)O)cc1.CC(C)OC(=O)[C@@H](N)[C@@H](C)O [[L-ThrOiPr][IBU], L-threonine isopropyl ester ibuprofenate]		11.294 ± 0.505	714.248 ± 38.838 ^b µg·cm^−2	400.942 ± 17.921 ^b µg IBU·cm^−2	1.339 ± 0.177	1.52	59.631 ± 6.900 µg IBU cm^−2 h^−1	129.6	621.866 ± 112.163									0.998 ± 0.001			
CC(C)Cc1ccc(C(C)C(=O)O)cc1.CC(C)OC(=O)[C@@H](N)C(C)C [[L-ValOiPr][IBU], L-valine isopropyl ester ibuprofenate]		13.698 ± 1.123	684.642 ± 56.109 ^b µg·cm^−2	386.391 ± 31.666 ^b µg IBU·cm^−2		1.85	43.749 ± 2.445 µg IBU cm^−2 h^−1														Log P (n-octanol-water partition coefficient) [10]: 1.154 ± 0.004 [31]; Solubility in DMSO [11]: + [31] (soluble >100 mg cm^−3); Solubility in chloroform [11]: + [31] (soluble >100 mg cm^−3); Solubility in dichloromethane [11]: + [31] (soluble >100 mg cm^−3); Solubility in diethyl ether [11]: +/− [31] (partially soluble 33–100 mg cm^−3); Solubility in ethanol [11]: + [31] (soluble >100 mg cm^−3); Solubility in ethyl acetate [11]: +/− [31] (partially soluble 33–100 mg cm^−3); Solubility in n-hexane [11]: − [31] (insoluble <33 mg cm^−3); Solubility in toluene [11]: + [31] (soluble >100 mg cm^−3); Solubility in Phosphate Buffer pH = 7.4 ([12]; g of active compound (IBU)): 2.821 ± 0.018 [31] g IBU∙dm^−3; Solubility in Phosphate Buffer pH = 7.4 ([12]; g of compound): 4.998 ± 0.018 [31] g∙dm^−3; Solubility in Water ([12]; g of active compound (IBU)): 1.957 ± 0.007 [31] g IBU∙dm^−3; Solubility in Water ([12]; g of compound): 3.468 ± 0.007 [31] g∙dm^−3
